Test results: patent US11299538B2, “Anti-IGF antibodies” (Boehringer Ingelheim International GmbH, priority 2008, dated 2022)

Test system: SK-ES-1 cells
Assay: Ewing's sarcoma-derived cell line growth assay, combination with rapamycin
Format: cell-based
Settings: Homo sapiens, SK-ES1, 100 nM (each agent), FIG. 8, read-out: proliferation inhibition
Protocol: The typical concentrations used are 30, 10, 3.3, 1.1, 0.37, and 0.12 μg/ml (or 100, 10, 1, 0.1, 0.01, 0.001 nM rapamycin and test antibody for combination studies) and each dilution is performed in triplicate wells. The cells plus antibody are then incubated for 120 hours after which time the relative cell number in each well is determined using the CellTiter-Glo luminescent cell viability assay (Promega). Luminescence (LU=Luminescence Units) is recorded using a XFluor GENios Pro 4 and for data analysis the mean value from triplicate wells is taken and fitted by iterative calculations using a sigmoidal curve analysis program (Graph Pad Prism) with variable Hill slope.

CO[C@H]1C[C@@H]2CC[C@@H](C)[C@@](O)(O2)C(=O)C(=O)N2CCCC[C@H]2C(=O)O[C@H]([C@H](C)C[C@@H]2CC[C@@H](O)[C@H](OC)C2)CC(=O)[C@H](C)/C=C(\C)[C@@H](O)[C@@H](OC)C(=O)[C@H](C)C[C@H](C)/C=C/C=C/C=C/1C [rapamycin, reference compound] was tested, and the inhibition at 0.1 µM was about 60%.
